Test results reported in patent US9296694B2, “Azacyclic compounds” (ACADIA Pharmaceuticals Inc., priority 2000, dated 2016).
Counter-ions that a name gives are not always drawn.

Assays:
Assay in all cases: R-SAT selectivity profile of 26HCH16D
Type in all cases: cell-based
alpha1a/D = biological target: T1, alpha1a/D (Rattus norvegicus, UniProt P23944); conditions: 4 doses in duplicate (3, 30, 300, 3000 nM)
T1 construct: expressed in transfected cells; host or cells: NIH3T3, pSI vector
T1 sequence (P23944 1-561): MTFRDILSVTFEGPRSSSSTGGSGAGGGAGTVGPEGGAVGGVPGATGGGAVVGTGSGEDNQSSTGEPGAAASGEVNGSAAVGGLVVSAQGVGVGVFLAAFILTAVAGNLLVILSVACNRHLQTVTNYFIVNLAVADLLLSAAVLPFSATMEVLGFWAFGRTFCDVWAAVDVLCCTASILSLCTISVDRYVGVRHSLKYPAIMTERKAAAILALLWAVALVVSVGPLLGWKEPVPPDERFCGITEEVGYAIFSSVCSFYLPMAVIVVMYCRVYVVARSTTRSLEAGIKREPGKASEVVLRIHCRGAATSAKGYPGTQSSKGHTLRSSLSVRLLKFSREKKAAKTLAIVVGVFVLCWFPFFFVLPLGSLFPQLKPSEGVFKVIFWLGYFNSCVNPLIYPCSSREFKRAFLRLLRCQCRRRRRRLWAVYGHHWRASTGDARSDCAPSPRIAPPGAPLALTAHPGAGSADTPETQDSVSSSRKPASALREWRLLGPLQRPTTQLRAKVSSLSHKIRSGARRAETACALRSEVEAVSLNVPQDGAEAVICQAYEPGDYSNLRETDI
Experimental: (§1) The functional receptor assay, Receptor Selection and Amplification Technology (R-SAT), was used (with minor modifications from that previously described U.S. Pat. No. 5,707,798) to screen compounds for efficacy at the 5-HT2A receptor. Briefly, NIH3T3 cells were grown in 96 well tissue culture plates to 70-80% confluence. Cells were transfected for 12-16 hours with plasmid DNAs using superfect (Qiagen Inc.) as per manufacture's protocols. R-SAT's were generally performed with 50 ng/well of receptor and 20 ng/well of Beta-galactosidase plasmid DNA. All receptor and G-protein constructs used were in the pSI mammalian expression vector (Promega Inc) as described in U.S. Pat. No. 5,707,798. The 5HT2A receptor gene was amplified by nested PCR from brain cDNA using the oligodeoxynucleotides based on the published sequence (see Saltzman et. al. Biochem. Biophys. Res. Comm. 181:1469-78 (1991)). Large-scale transfections, cells were transfected for 12-16 hours, then trypsinized and frozen in DMSO. Frozen cells were later thawed, plated at 10,000-40,000 cells per well of a 96 well plate that contained drug. With both methods, cells were then grown in a humidified atmosphere with 5% ambient CO2 for five days. Media was then removed from the plates and marker gene activity was measured by the addition of the beta-galactosidase substrate ONPG (in PBS with 5% NP-40). The resulting colorimetric reaction was measured in a spectrophotometric plate reader (Titertek Inc.) at […]. All data were analyzed using the computer program XLFit (IDBSm). Efficacy is the percent maximal repression compared to repression by a control compound (ritanserin in the case of 5HT2A). pIC50 is the negative of the log(IC50), where IC50 is the calculated concentration in Molar that produces 50% maximal repression.
(§2) R-SAT assays (as described in Example 42) were carried out with cells transfected with receptors (listed below) to determine the receptor selectivity profile for compound 26HCH16D. 5HT2A inverse agonist data (IC50 nM; % efficacy) were derived from detailed dose response curves (7 points in triplicate).

5HT1E = biological target: T2, 5HT1E (Homo sapiens, UniProt P28566); conditions: Agonist; 4 doses in duplicate (3, 30, 300, 3000 nM)
T2 construct: expressed in transfected cells; host or cells: NIH3T3, pSI vector
Experimental: as §1, §2

5HT2B = biological target: T3, 5HT2B (Homo sapiens, UniProt P41595); conditions: Antagonist; 4 dose profiling
T3 construct: expressed in transfected cells; host or cells: NIH3T3, pSI vector
Experimental: as §1, §2

H1 = biological target: T4, H1 (Homo sapiens, UniProt P35367)
T4 construct: expressed in transfected cells; host or cells: NIH3T3, pSI vector
Experimental: as §1, §2

alpha1c/A = biological target: T5, alpha1c/A (Homo sapiens, UniProt P35348)
T5 construct: expressed in transfected cells; host or cells: NIH3T3, pSI vector
T5 sequence (P35348 1-466): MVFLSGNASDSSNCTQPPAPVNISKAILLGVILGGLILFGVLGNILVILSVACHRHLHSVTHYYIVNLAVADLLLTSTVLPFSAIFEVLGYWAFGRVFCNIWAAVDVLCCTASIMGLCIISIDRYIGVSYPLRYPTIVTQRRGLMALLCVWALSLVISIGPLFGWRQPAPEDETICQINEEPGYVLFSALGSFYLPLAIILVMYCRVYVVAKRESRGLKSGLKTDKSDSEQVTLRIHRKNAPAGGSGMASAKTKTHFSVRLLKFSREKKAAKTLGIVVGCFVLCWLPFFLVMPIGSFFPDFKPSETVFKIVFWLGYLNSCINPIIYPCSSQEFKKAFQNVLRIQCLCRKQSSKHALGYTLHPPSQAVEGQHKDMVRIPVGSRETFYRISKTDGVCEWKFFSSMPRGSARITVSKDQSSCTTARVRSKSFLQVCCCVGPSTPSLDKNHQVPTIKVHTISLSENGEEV
Experimental: as §1, §2

[1] = Agonist, 4 doses in duplicate (3, 30, 300, 3000 nM)

T4 sequence (P35367 whole entry): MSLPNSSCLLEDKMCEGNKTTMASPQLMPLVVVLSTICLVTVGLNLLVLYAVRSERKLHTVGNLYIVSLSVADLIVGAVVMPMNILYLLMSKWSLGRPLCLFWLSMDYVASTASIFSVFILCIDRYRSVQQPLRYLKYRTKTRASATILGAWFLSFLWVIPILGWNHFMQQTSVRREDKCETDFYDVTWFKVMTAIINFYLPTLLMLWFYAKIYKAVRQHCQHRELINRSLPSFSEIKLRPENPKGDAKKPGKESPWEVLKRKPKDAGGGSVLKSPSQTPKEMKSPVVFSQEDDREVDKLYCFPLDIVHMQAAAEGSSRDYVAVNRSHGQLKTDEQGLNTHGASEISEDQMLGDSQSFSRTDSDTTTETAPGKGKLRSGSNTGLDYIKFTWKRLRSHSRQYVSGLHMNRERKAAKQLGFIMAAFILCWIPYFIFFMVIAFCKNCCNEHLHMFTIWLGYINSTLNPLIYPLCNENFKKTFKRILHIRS
T3 sequence (P41595 whole entry): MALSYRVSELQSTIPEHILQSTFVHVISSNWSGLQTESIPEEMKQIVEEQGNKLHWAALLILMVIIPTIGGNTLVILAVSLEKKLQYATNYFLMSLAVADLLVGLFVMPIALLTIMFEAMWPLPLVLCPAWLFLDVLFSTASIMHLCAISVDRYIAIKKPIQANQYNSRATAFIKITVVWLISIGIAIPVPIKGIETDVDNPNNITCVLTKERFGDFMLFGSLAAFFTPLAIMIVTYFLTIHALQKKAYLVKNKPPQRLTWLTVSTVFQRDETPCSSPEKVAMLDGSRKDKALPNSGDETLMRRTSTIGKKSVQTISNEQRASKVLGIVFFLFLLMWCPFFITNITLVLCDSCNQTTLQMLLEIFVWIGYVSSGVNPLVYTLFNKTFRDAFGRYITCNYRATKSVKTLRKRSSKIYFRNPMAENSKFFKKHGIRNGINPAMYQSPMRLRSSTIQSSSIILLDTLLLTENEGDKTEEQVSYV
T2 sequence (P28566 whole entry): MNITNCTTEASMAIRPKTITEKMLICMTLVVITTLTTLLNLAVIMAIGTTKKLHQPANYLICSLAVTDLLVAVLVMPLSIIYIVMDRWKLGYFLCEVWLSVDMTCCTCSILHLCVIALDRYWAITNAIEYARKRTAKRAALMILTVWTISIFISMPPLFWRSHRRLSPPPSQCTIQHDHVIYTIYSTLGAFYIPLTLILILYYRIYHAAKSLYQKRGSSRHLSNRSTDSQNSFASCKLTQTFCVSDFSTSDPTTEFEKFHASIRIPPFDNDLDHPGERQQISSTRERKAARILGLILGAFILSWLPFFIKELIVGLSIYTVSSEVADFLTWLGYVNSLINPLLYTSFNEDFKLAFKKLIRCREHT

## Cc1ccc(CN(C(=O)NCc2ccccc2)C2CCN(Cc3ccccc3)CC2)cc1 [Compound 26HCH16D, N-((4-Methylphenyl)methyl)-N-(1-(phenylmethyl)piperidin-4-yl)-N′-phenylmethylcarbamide hydrochloride]
alpha1a/D; Agonist
  Efficacy: nr (nr=activity less than 30% at all doses tested (3, 30, 300, 3000 nM), therefore EC50/IC50 greater than 3000 nM))
alpha1a/D; Antagonist
  Efficacy: nr (nr=activity less than 30% at all doses tested (3, 30, 300, 3000 nM), therefore EC50/IC50 greater than 3000 nM))
5HT1E
  Efficacy: nr (nr=activity less than 30% at all doses tested (3, 30, 300, 3000 nM), therefore EC50/IC50 greater than 3000 nM))
5HT2B
  initial concentration at which at least 30% efficacy observed: 3000 nM
H1; [1]
  Efficacy: nr (nr=activity less than 30% at all doses tested (3, 30, 300, 3000 nM), therefore EC50/IC50 greater than 3000 nM))
H1; Antagonist, 4 dose profiling
  initial concentration at which at least 30% efficacy observed: 3000 nM
alpha1c/A; [1]
  Efficacy: nr (nr=activity less than 30% at all doses tested (3, 30, 300, 3000 nM), therefore EC50/IC50 greater than 3000 nM))
alpha1c/A; Antagonist, 4 dose profiling
  initial concentration at which at least 30% efficacy observed: 3000 nM
